# Tested on: pig liver esterase (PLE; EC 3.1.1.1)
# Test: release of p-nitroaniline at […] nm, saturation curve
# Format: biochemical, Sus scrofa
# Settings: PBS pH 7.7, 10% v/v DMSO, 25 °C, PLE 0.25 μg/mL, substrate 0.5-33 μM
smiles,measurement,value
"CC(=O)Oc1cc(C)cc(C)c1C(C)(C)CC(=O)Nc1ccc([N+](=O)[O-])cc1 [compound 1, prochromophore 1]",Km,14 µM

# Source: paper PMC2803762 (Molecules, 2008)
